Literature values, collected in patent US8148337B2, “Vaginal compositions for treating pelvic tissue infections and traumas” (priority 2003, dated 2012).

What was measured:
chlamydial infection = settings: orally as a single dose
[1] = administered rectally

In the case of `CC[C@H]1OC(=O)[C@H](C)[C@@H](O[C@H]2C[C@@](C)(OC)[C@@H](O)[C@H](C)O2)[C@H](C)[C@@H](O[C@@H]2O[C@H](C)C[C@H](N(C)C)[C@H]2O)[C@](C)(O)C[C@@H](C)CN(C)[C@H](C)[C@@H](O)[C@]1(C)O` [azithromycin], the “women who experience side effects” value (chlamydial infection) is listed as 25% and the bioavailability [1] is listed as “highly variable and low”.
